# Where two headings read alike, the source gives them in different places.
# What was measured:
# [1] = tested on: Phytophthora infestans (the causal agent of tomato late blight); test: whole plant or invertebrate; type: in vivo; settings: for TLB Obsd: component (b) alone; for TLB Obsd (disease control rating): Table B
# [2] = tested on: Pseudoperonospora cubensis (the causal agent of cucumber downy mildew); test: Test B: cucumber downy mildew, preventive spray on cucumber seedlings; type: in vivo; settings: for CDM Obsd (disease control rating): Table B
# [3] = Phytophthora infestans, read-out: TLB Obsd, component (b) alone, 2 ppm
# [4] = Phytophthora infestans, read-out: TLB Obsd, component (b) alone, 10 ppm
# [5] = Phytophthora infestans, read-out: TLB Obsd, component (b) alone, 40 ppm
# [6] = Phytophthora infestans, read-out: TLB Obsd, component (b) alone, 200 ppm
# [7] = Pseudoperonospora cubensis, component (b) alone, 2 ppm, read-out: CDM Obsd
# [8] = Pseudoperonospora cubensis, component (b) alone, 10 ppm, read-out: CDM Obsd
# [9] = Pseudoperonospora cubensis, component (b) alone, 40 ppm, read-out: CDM Obsd
# [10] = Pseudoperonospora cubensis, component (b) alone, 200 ppm, read-out: CDM Obsd
# [11] = component (b) alone 0.08 ppm (Compound 1 0 ppm)
# [12] = component (b) alone 0.4 ppm (Compound 1 0 ppm)
# [13] = component (b) alone 2 ppm (Compound 1 0 ppm)
# [14] = component (b) alone 10 ppm (Compound 1 0 ppm)
molecule,measurement,setting,value
Cc1cc(C(F)(F)F)nn1CC(=O)N1CCC(c2nc(C3=NOC(C)(c4ccccc4)C3)cs2)CC1 (stereo not drawn),melting point,,97 to 100 °C
Cc1cc(C(F)(F)F)nn1CC(=O)N1CCC(c2nc(C3=NOC4c5ccccc5CCC34)cs2)CC1 (stereo not drawn),melting point,,162 to 165 °C
COc1ccc(C2CC(c3csc(C4CCN(C(=O)Cn5nc(C(F)(F)F)cc5C)CC4)n3)=NO2)cc1 (stereo not drawn),melting point,,119 to 124 °C
CCc1cc(C(F)(F)F)nn1CC(=O)N1CCC(c2nc(C3=NOC(c4ccccc4)C3)cs2)CC1 (stereo not drawn),melting point,,128 to 133 °C
O=C(Cn1nc(C(F)(F)F)cc1C(F)(F)F)N1CCC(c2nc(C3=NOC(c4ccccc4)C3)cs2)CC1 (stereo not drawn),melting point,,130 to 133 °C
Fc1ccc(Oc2ccnc3cc(Cl)cc(Cl)c23)cc1 [quinoxyfen],pest or weed control at 0.016 ppm,"[1]; Phytophthora infestans, read-out: TLB Obsd, Table E, component (b) alone at 0.016 ppm",9%
same,pest or weed control at 0.08 ppm,"[1]; Phytophthora infestans, read-out: TLB Obsd, Table E, component (b) alone at 0.08 ppm",24%
same,pest or weed control at 0.4 ppm,"[1]; Phytophthora infestans, read-out: TLB Obsd, Table E, component (b) alone at 0.4 ppm",26%
same,pest or weed control at 2 ppm,"[1]; Phytophthora infestans, read-out: TLB Obsd, Table E, component (b) alone at 2 ppm",9%
same,pest or weed control at 10 ppm,"[1]; Phytophthora infestans, read-out: TLB Obsd, Table E, component (b) alone at 10 ppm",9%
same,pest or weed control at 0.4 ppm,"[1]; Phytophthora infestans, read-out: TLB Obsd, component (b) alone, 0.4 ppm",0%
same,pest or weed control at 2 ppm,[1]; [3],7%
same,pest or weed control at 10 ppm,[1]; [4],7%
same,pest or weed control at 40 ppm,[1]; [5],0%
same,pest or weed control at 200 ppm,[1]; [6],0%
same,pest or weed control at 0.016 ppm,"[2]; Pseudoperonospora cubensis, Table F, component (b) alone at 0.016 ppm, read-out: CDM Obsd",26%
same,pest or weed control at 0.08 ppm,"[2]; Pseudoperonospora cubensis, Table F, component (b) alone at 0.08 ppm, read-out: CDM Obsd",26%
same,pest or weed control at 0.4 ppm,"[2]; Pseudoperonospora cubensis, Table F, component (b) alone at 0.4 ppm, read-out: CDM Obsd",26%
same,pest or weed control at 2 ppm,"[2]; Pseudoperonospora cubensis, Table F, component (b) alone at 2 ppm, read-out: CDM Obsd",26%
same,pest or weed control at 10 ppm,"[2]; Pseudoperonospora cubensis, Table F, component (b) alone at 10 ppm, read-out: CDM Obsd",26%
same,pest or weed control at 0.4 ppm,"[2]; Pseudoperonospora cubensis, component (b) alone, 0.4 ppm, read-out: CDM Obsd",0%
same,pest or weed control at 2 ppm,[2]; [7],0%
same,pest or weed control at 10 ppm,[2]; [8],0%
same,pest or weed control at 40 ppm,[2]; [9],0%
same,pest or weed control at 200 ppm,[2]; [10],0%
CON=C(C(=O)OC)c1ccccc1CON=C(C)c1cccc(C(F)(F)F)c1 [trifloxystrobin],pest or weed control at 0.4 ppm,"[1]; Phytophthora infestans, read-out: TLB Obsd (disease control rating), Table C, component (b) alone 0.4 ppm",0%
same,pest or weed control at 2 ppm,"[1]; Phytophthora infestans, read-out: TLB Obsd (disease control rating), Table C, component (b) alone 2 ppm",40%
same,pest or weed control at 10 ppm,"[1]; Phytophthora infestans, read-out: TLB Obsd (disease control rating), Table C, component (b) alone 10 ppm",26%
same,pest or weed control at 40 ppm,"[1]; Phytophthora infestans, read-out: TLB Obsd (disease control rating), Table C, component (b) alone 40 ppm",45%
same,pest or weed control at 200 ppm,"[1]; Phytophthora infestans, read-out: TLB Obsd (disease control rating), Table C, component (b) alone 200 ppm",53%
same,pest or weed control at 0.04 ppm,"[1]; Phytophthora infestans, read-out: TLB Obsd, component (b) alone, 0.04 ppm",0%
same,pest or weed control at 2 ppm,[1]; [3],0%
same,pest or weed control at 10 ppm,[1]; [4],72%
same,pest or weed control at 40 ppm,[1]; [5],38%
same,pest or weed control at 200 ppm,[1]; [6],25%
same,pest or weed control at 0.4 ppm,"[2]; Pseudoperonospora cubensis, Table C, component (b) alone 0.4 ppm, read-out: CDM Obsd (disease control rating)",47%
same,pest or weed control at 2 ppm,"[2]; Pseudoperonospora cubensis, Table C, component (b) alone 2 ppm, read-out: CDM Obsd (disease control rating)",47%
same,pest or weed control at 10 ppm,"[2]; Pseudoperonospora cubensis, Table C, component (b) alone 10 ppm, read-out: CDM Obsd (disease control rating)",58%
same,pest or weed control at 40 ppm,"[2]; Pseudoperonospora cubensis, Table C, component (b) alone 40 ppm, read-out: CDM Obsd (disease control rating)",94%
same,pest or weed control at 200 ppm,"[2]; Pseudoperonospora cubensis, Table C, component (b) alone 200 ppm, read-out: CDM Obsd (disease control rating)",100%
same,pest or weed control at 0.4 µg/mL,"[2]; Pseudoperonospora cubensis, component (b) alone 0.4 ppm (Compound 1 0 ppm), read-out: CDM Obsd",47%
same,pest or weed control at 2 µg/mL,"[2]; Pseudoperonospora cubensis, component (b) alone 2 ppm (Compound 1 0 ppm), read-out: CDM Obsd",47%
same,pest or weed control at 10 µg/mL,"[2]; Pseudoperonospora cubensis, component (b) alone 10 ppm (Compound 1 0 ppm), read-out: CDM Obsd",57%
same,pest or weed control at 40 µg/mL,"[2]; Pseudoperonospora cubensis, component (b) alone 40 ppm (Compound 1 0 ppm), read-out: CDM Obsd",93%
same,pest or weed control at 200 µg/mL,"[2]; Pseudoperonospora cubensis, component (b) alone 200 ppm (Compound 1 0 ppm), read-out: CDM Obsd",100%
same,pest or weed control at 0.04 ppm,"[2]; Pseudoperonospora cubensis, component (b) alone, 0.04 ppm, read-out: CDM Obsd",0%
same,pest or weed control at 2 ppm,[2]; [7],0%
same,pest or weed control at 10 ppm,[2]; [8],16%
same,pest or weed control at 40 ppm,[2]; [9],89%
same,pest or weed control at 200 ppm,[2]; [10],100%
COC(=O)CC(NC(=O)[C@@H](NC(=O)OC(C)C)C(C)C)c1ccc(Cl)cc1 (stereo partly drawn) [valiphenal],TLB Obsd,[1]; 0.016 ppm,8%
same,TLB Obsd,[1]; 0.08 ppm,8%
same,TLB Obsd,[1]; 0.4 ppm,8%
same,TLB Obsd,[1]; 2 ppm,32%
same,TLB Obsd,[1]; 10 ppm,99%
same,CDM Obsd,[2]; component (b) alone 0.016 ppm (Compound 1 0 ppm),65%
same,CDM Obsd,[2]; [11],47%
same,CDM Obsd,[2]; [12],47%
same,CDM Obsd,[2]; [13],47%
same,CDM Obsd,[2]; [14],57%
same,CDM Obsd,"[2]; component (b) alone, 0.016 ppm",31%
same,CDM Obsd,"[2]; component (b) alone, 0.08 ppm",16%
same,CDM Obsd,"[2]; component (b) alone, 0.4 ppm",16%
same,CDM Obsd,"[2]; component (b) alone, 2 ppm",53%
same,CDM Obsd,"[2]; component (b) alone, 10 ppm",100%
benthiovalicarb,TLB Obsd (disease control rating),[1]; component (b) alone 0.4 ppm,53%
same,TLB Obsd (disease control rating),[1]; component (b) alone 2 ppm,100%
same,TLB Obsd (disease control rating),[1]; component (b) alone 10 ppm,100%
same,TLB Obsd (disease control rating),[1]; component (b) alone 40 ppm,100%
same,CDM Obsd (disease control rating),[2]; component (b) alone 0.4 ppm,90%
same,CDM Obsd (disease control rating),[2]; component (b) alone 2 ppm,100%
same,CDM Obsd (disease control rating),[2]; component (b) alone 10 ppm,100%
same,CDM Obsd (disease control rating),[2]; component (b) alone 40 ppm,100%
same,CDM Obsd,[2]; [11],33%
same,CDM Obsd,[2]; [12],86%
same,CDM Obsd,[2]; [13],100%
same,CDM Obsd,[2]; [14],100%
same,CDM Obsd,[2]; component (b) alone 40 ppm (Compound 1 0 ppm),100%
